Data set [1] deals with zinc precipitated Aβ. The experiment in a line: Chelating ability: washing of zinc-aggregated synthetic Aβ on nylon membrane, anti-Aβ 6E10 / ECL. It counts as biochemical. The settings on record: 10 ng synthetic Aβ aggregated with 25 μM ZnCl; wash with TBS containing 2 μM chelator; 100% for TBS alone. The procedure: Samples of 10 ng synthetic Aβ were placed in microtitre wells and caused to aggregate by the addition of 25 μM ZnCl. The aggregates were then transferred to a 0.2 μm nylon membrane by filtration. […] The membrane was fixed, probed with the anti Aβ monoclonal antibody 6E10 and developed for exposure to ECL-film. The transmittance of the ECL-film was measured and the relative signal strength calculated based on 100% for TBS alone.

Data set [2] can be described thus: 1H NMR study of the interaction of vitamin B12 with clioquinol glucuronide. In kind it is binding. To be noted: 2.6 mM vitamin B12 + 10 mM clioquinol glucuronide, buffered water pH 6.5, 20° C. The protocol: Three different solutions were prepared and their ^1 H NMR spectra were recorded in a DRX 400 MHz spectrophotometer at 20° C. Solution a) contained free vitamin B12 (hydroxycobalamin) in a concentration of 2.6 mM.
In FIGS. 1A-1C the spectra of the three solutions a, b and c are presented for the aromatic region (5.5-9.8 ppm). The differences are quite small but obvious in the expansion shown of FIGS. 2A-2C and FIGS. 3B-3C respectively.

Data set [3] in a line: Solubility in water / aqueous solutions. It counts as physicochemical.
For data set [4], the system named is vitamin B12 ([57Co]-cyanocobalamine). Description: Influence of clioquinol on vitamin B12 in vivo: tissue radioactivity after [57Co]-cyanocobalamine injection. To be noted: mice, clioquinol 50 mg/kg/day injected for three days, then [57Co]-cyanocobalamine, sacrificed after two days, ±SEM. The protocol: After three days, all of the mice were injected with [^57 Co]-cyanocobalamine. After two days, the animals were sacrificed, and the brain, liver and kidney were dissected and counted in a gamma-counter as thousand cpm/g tissue (wet weight)±SEM. The radioactivities in each of the groups are stated in Table 1 below: […]

For data set [5] the following is noted: injected preparations, dosages of 10-20 mg/kg; cited from earlier work.
A short description of data set [6]: Dissolution of clioquinol in n-decane and partition into PBS pH 7.4. In kind it is physicochemical. The procedure:
The resolubilization of amyloid aggregates by clioquinol was studied. […] The undissolved material was allowed to settle. […] 100 ml of the (light yellow) supernatant was agitated together with 100 ml of PBS pH 7.4 and the phases allowed to separate. The PBS (lower phase) was collected and filtered to remove the residue which formed at the phase interface upon extraction with the organic solvent.

The subject of data set [7] is Aβ. The experiment in a line: Resolubilization of amyloid aggregates in Alzheimer's disease brain homogenates (Western blot of supernatants). In kind it is biochemical, human. The settings on record: frontal lobe neocortex, clioquinol/PBS at 100%, 10% and 1% (100%=800 nM).
Experimental: Brain specimens were obtained for which a histopathological diagnosis of Alzheimer's disease was confirmed.
The homogenates were centrifuged at 150,000 xg for thirty minutes and the supernatants collected and held on ice (fraction "S"). The pellets were subjected to an identical homogenization and centrifugation regime and the resulting supernatants again collected (fraction "P").
1 ml of each supernatant was treated with 200 μl of ice cold 10% TCA to precipitate total protein including Aβ. The resulting pellet was washed once with 100% ethanol and resuspended in 100 μl of TBS (tris 20 mM, NaCl 150 mM, pH 7.4).
7.5 μl of sample (S or P) was boiled for 5 min. with an equal volume of tris-tricine sample buffer containing 4% SDS and loaded onto a Novex pre-cast 10-20% tris-tricine gel followed by Western transfer onto nitrocellulose. Signal for Aβ was detected using mAb WO2 (raised against residues 5-16 of Aβ) and visualized using ECL. The sensitivity of the detection system is 5-10 pg. […]
The conditions of data set [8]: assumed value; 1:1 mixtures of decane/clioquinol with PBS pH 7.4; cited from earlier work.
The subject of data set [9] is zinc precipitated Aβ. The experiment in a line: Resolubilization of zinc-aggregated Aβ in TBS. In kind it is biochemical. To be noted: 2.5 μM Aβ in TBS pH 7.4, 30 μM zinc (43% in solution), then 120 μM clioquinol; 95% soluble before zinc. The protocol:
The ability of clioquinol to resolubilize zinc-aggregated Aβ was assessed. A 2.5 μM solution of Aβ in TBS at a pH of 7.4 was prepared. 95% of the Aβ was maintained in a soluble state.

Turning to `O=C(O)CN(CCN(CC(=O)O)CC(=O)O)CC(=O)O` [EDTA], the “Relative signal strength of Aβ remaining on membrane” value in data set [1] came out at 66%.

Turning to `COC(=O)[C@H]1O[C@@H](Oc2c(I)cc(Cl)c3cccnc23)[C@H](OC(C)=O)[C@@H](OC(C)=O)[C@@H]1OC(C)=O` [clioquinol glucuronide, methyl (5-chloro-7-iodo-quinolyl-2',3',4'tri-O-acetyl-glucopyranosid)uronate], the “Interaction with vitamin B12 (shift of 1H NMR resonances)” value in [2] is listed as “interaction”. Also, the “Solubility in water / aqueous solutions” value in [3] is “soluble in water”.

For `Oc1c(I)cc(Cl)c2cccnc12` [clioquinol, 5-chloro-7-iodo-8 hydroxyquinoline], the Radioactivity in brain in data set [4] (control 9.4 ± 0.9) is 8.4 ± 1.5 thousand cpm/g tissue (wet wei. Besides, the Radioactivity in liver in data set [4] (control 97 ± 8) was 85 ± 21 thousand cpm/g tissue (wet wei. The Radioactivity in kidney in data set [4] (control 895 ± 207) is given as 252 ± 61 thousand cpm/g tissue (wet wei. The “Concentration in the brain” value in data set [5] is reported as around 20 μl/ml. Also, the “Fraction of clioquinol dissolved in n-decane” value in data set [6] (5.3 g suspended in 200 ml n-decane) is 2%. The “Concentration of clioquinol in the PBS” value in data set [6] (PBS pH 7.4 extract of the n-decane supernatant, calculated from assumed 2% dissolution and partitioning coefficient) was 800 nM. The “Solubilization of Aβ from Alzheimer's disease brain homogenate” value in data set [7] is recorded as “effective in promoting the solubilization of Aβ”. In addition, the “Partitioning coefficient with PBS” value in data set [8] is 1/1750. In [9], the “Soluble Aβ after addition to zinc precipitated Aβ” value is reported as 70%. Moreover, the “Solubility in water / aqueous solutions” value in data set [3] is given as “cannot be dissolved in aqueous solutions”.

The values are drawn from patent US5994323A (priority 1997, dated 1999).
